“Also recorded” adds a separate entry of the source.
Key:
R848-stimulated BMDCs [1] = test: Cytokine production by R848-stimulated BMDCs; assay type: cell-based, mouse
Text: (§1) The pyridinyl tetrahydroquinoline BRD6989 (10) emerged as a prioritized hit in the screen (FIG. 2a and Table 2). […] Thus, BRD6989 enhances IL-10 production in activated human and murine macrophages and dendritic cells by a mechanism that appears most pronounced following stimulation of toll-like receptors-7 (TLR7) and TLR8 by R848.
(§2) Pre-treatment with these CDK8/19 inhibitors recapitulated the IL-10 potentiating activity of BRD6989 in both BMDCs (FIG. 9b) along with human DCs derived from two independent donors in the context of R848 stimulation (FIGS. 9c and 10a).

[2] = tested on: human, monocyte-derived DCs; test: IL-10 production in human monocyte-derived DCs stimulated with R848; assay type: cell-based
Text: as §1, §2

[3] = tested on: BMDCs stimulated with R848 or Zymosan A; test: Co-treatment of BMDCs with T-5224, cytokine production; assay type: cell-based, mouse; conditions: T-5224 100 μM
Experimental: FIG. 13—Modulation of c-Jun/AP-1 links CDK8 inhibition to enhanced IL-10 production. (a) CDK8 responsive signaling pathways in activated BMDMs as identified by the highly parallel reporter gene assay TF-Seq. Reporter data is integrated for time points between 15 min 4 hr from 1 independent experiment. Dashed lines correspond to FDR<0.05 as corrected by Benjamin-Hochberg testing. (b) Relative to all highly expressed genes, JunB binding sites are enriched among the subset of genes induced by CDK8 inhibition (see Online Methods). […] Data is representative of 2 independent experiments. […] Data is representative of 2 independent experiments. […] CpG, synthetic CpG-containing oligonucleotide; FLA, flagellin A; LPS, lipopolysaccharide; MDP, muramyldipeptide; Pam3cys, synthetic triacylated lipoprotein; poly(I:C), polyinosinic-polycytidylic acid; SeV, Sendai virus; TDB, trehalose-6,6-dibehenate.
FIG. 15—CDK8 inhibition enhances AP-1 activity during innate immune activation. (a) Time course of AP-1 reporter activity in BMDMs pre-treated with dCA (0.1 μM) or BRD6989 (5 μM) prior to stimulation with the indicated viruses or microbial ligands for the indicated time points (each point corresponds to TF-Seq reporter data derived from 1 independent experiment). […] Data is from 1 independent experiment. (c) Chemical structure of the c-Fos/AP-1 inhibitor T-5224. […] Data in panels (c,d) are representative of 2 independent experiments. CpG, synthetic CpG-containing oligonucleotide; FLA, flagellin; LPS, lipopolysaccharide; MDP, muramyldipeptide; Pam3cys, synthetic triacylated lipoprotein; Poly(I:C), polyinosinic-polycytidylic acid; SeV, Sendai virus; TDB, trehalose-6,6-dibehenate.
Given the presence of an AP1 consensus motif in IL-10 and evidence that potentiation of MAP kinase signaling can increase IL-10 production (Saraiva et al., Nat Rev Immunol 10:170-81, 2010; Wang et al., Nat Commun 5:3479, 2014; Na et al., Science Signaling 8:2015), it was hypothesized that increased AP-1 activity resulting from reduced c-Jun Ser243 phosphorylation may mediate activation of IL-10 following CDK8 inhibition.

[4] = tested on: Zymosan A-stimulated BMDCs; test: Cytokine production by Zymosan A-stimulated BMDCs; assay type: cell-based, mouse; conditions: zymosan A-stimulated BMDCs
Text: Towards the goal of identifying new mechanisms of IL-10 regulation, 59,346 small molecules were screened for the ability to enhance IL-10 production by activated bone marrow-derived dendritic cells (BMDCs) using a high-throughput assay developed previously (Sundberg et al., PNAS 111:12468-12473, 2014). Compounds were derived from both commercial collections and structurally and skeletally diverse libraries prepared by diversity-oriented synthesis (DOS). More than 60 hit compounds were identified that reproducibly enhance IL-10 production in a concentration-dependent manner (Table 1). Three distinct chemotypes were prioritized for follow-up based on potency and an initial analysis of structure-activity relationship (SAR) with respect to core scaffold, stereochemistry and side chains (FIG. 2a).
as §1

tubulin = test: Tubulin polymerization, cell-free assay; assay type: biochemical
Text: FIG. 4—DOS-derived IL-10 hit BRD0326 perturbs microtubule dynamics. (a) Chemical structure of BRD0326. […] (c) BRD0326's IL-10 enhancing activity depends on its stereochemistry (EC50's=mean of 2 independent experiments). (d) Transcriptional responses elicited by BRD0326 correlate with those induced by small molecule modulators of microtubule dynamics.

R848-stimulated BMDCs [5] = test: IL-10 mRNA levels in BMDCs following R848 stimulation; assay type: cell-based, mouse; conditions: pre-treatment, then R848 stimulation
Experimental: FIG. 5—Cellular activities of the IL-10 hit BRD6989. […] (d) Effect of BRD6989 on IL-10 production in human DCs stimulated with R848 (each point corresponds to mean±S.D.; n=3 biological replicates from 1 independent experiment using cells derived from 1 donor). (e) Chemical structure of the pan-SIK inhibitor HG-9-91-01. (f) Effect of pre-treating BMDCs with HG-9-91-01 (0.5 μM) or BRD6989 (5 μM) on IL-10 mRNA levels following stimulation with R848 (each point corresponds to mean±S.D.; n=4 biological replicates from 1 independent experiment; *, P<0.05; ***, P<0.001 using unpaired, two-tailed Student's t test). Data from all panels is representative of at least 2 independent experiments.
Based on its ability to selectively potentiate IL-10 production by a mechanism that appears temporally distinct from CREB activation, BRD6989 was prioritized for MOA studies.

With `CN(C)C/C=C/C(=O)Nc1ccc(C(=O)Nc2cccc(Nc3ncc(Cl)c(-c4c[nH]c5ccccc45)n3)c2)cc1` [THZ-1] the IL-10 production (R848-stimulated BMDCs [1]) was “not enhanced”.
`Cn1ncc2cc(-c3cnc(N)c(Cl)c3N3CCC4(CCNC4=O)CC3)ccc21` [CCT251921] was tested, and the IL-10 production (R848-stimulated BMDCs [1]) was “recapitulate the IL-10 enhancing activity of BRD6989” and the IL-10 production [2] was “recapitulate IL-10 potentiation by BRD6989”.
For `O=C(O)CCc1cc(C(=O)c2ccc(OC3CCCC3)cc2O)ccc1OCc1ccc2c(=O)[nH]oc2c1` [T-5224], the “production of IL-6 or TNFα on co-incubation with dCA” value ([3]; R848) was “does not affect production of IL-6 or TNFα”, the “IL-10 production on co-treatment with dCA” value ([3]; R848 or Zymosan A) was “suppressed IL-10 production; also recorded: suppresses the IL-10 enhancing activity of dCA” and the “IL-10 increase induced by HG-9-91-01 on co-treatment” value ([3]; Zymosan A) was “did not affect; also recorded: does not affect up-regulation of IL-10 or suppression of IL-6”.
`CS(=O)(=O)N1[C@H](C#N)[C@H](c2ccc(C#Cc3cccc(F)c3)cc2)[C@H]1CO` [BRD0326] was tested, and the IL-10 production [4] was “potentiates IL-10 production by Zymosan A-stimulated BMDCs to a similar degree as PGE2” and the “tubulin / microtubule polymerization” value (tubulin) was “suppressed microtubule polymerization; also recorded: suppresses tubulin polymerization”.
With `COc1ccc(N(C(=O)Nc2c(C)cccc2C)c2cc(Nc3ccc(N4CCN(C)CC4)cc3)ncn2)c(OC)c1` [HG-9-91-01, reference compound] the “IL-10 mRNA levels” value (R848-stimulated BMDCs [5]) was “elevate Il-10 mRNA immediately following microbial stimulation without greatly extending the duration of this response”.

Source: patent publication US11285144B2, “Use of CDK8 inhibitors to treat diseases of inflammation and autoimmunity” (THE BROAD INSTITUTE, INC., priority 2016, dated 2022)
